Reference: paper PMC9116245, “New 1,2,3-triazole linked ciprofloxacin-chalcones induce DNA damage by inhibiting human topoisomerase I& II and tubulin polymerization” (Journal of Enzyme Inhibition and Medicinal Chemistry, 2022)

Key:
[1] = tested on: 59 human cancer cell lines; assay: NCI one-dose screen, whole panel; type: cell-based; conditions: Homo sapiens, mean over the panel, read-out: Mean Growth Percent
Procedure: For screening of anticancer properties, all the developed compounds were chosen by the (NCI) for in-vitro antitumor evaluation. The assay was carried out using 59 human cancer cell lines obtained from nine tumour subpanels (breast, ovarian, melanoma, leukaemia, renal, CNS, lung, prostate, and colon cancer cell lines). Compounds were assessed at a 10 µM concentration. […] Also, hybrids 4a, 4b, 4e, 4i and 4j produced significant anti-proliferative effect in several cancer cells, particularly in leukaemia (RPMI-8226) and colon (HCT116) cells with growth percent of 47.87, −14.59, −24.56, −24.42, −15.84, −9.74, −53.36, −10.26, −31.29, and −39.51%, respectively.
The method description for NCI anticancer screening is provided in detail in the standard NCI-60 testing protocol.

γH2AX = γH2AX immunofluorescence in HCT116 cells; type: cell-based, human; conditions: HCT116, IC50 of compound
Source text: DNA damage is a major reason for inhibiting proliferation and inducing cytotoxicity in cancer cells as well as the main downstream cascade for the Topo-I, Top-II, and tubulin polymerisation inhibition. The phosphorylation of the histone H2AX always occurs after DNA damage forming double-stranded breaks (DSBs). Therefore, we tested the capability of the potent prepared compounds to trigger DNA double strand breaks through detection of the phosphorylation of γH2AX using two different techniques, Immunofluorescence, and western blotting.
HCT116 cells were cultured and treated with the IC50 of the potent compounds (4a, 4b, 4e, 4i, and 4j) or DMSO (control), fixed, permeabilized, and they were incubated with either γH2AX or α-tubulin antibody as the reported procedure in the literature. Confocal images were captured using a Confocal Microscope with a 63X objective. All images were processed using ImageJ software. See Supplementary Appendix A.

UACC-62 = assay: NCI one-dose screen; type: cell-based; conditions: Homo sapiens; UACC-62, 10 µM; read-out: Growth Percent
Summary of the method: (§1)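 Single dose, 10 µM; 59-line human tumour panel (nine subpanels); read-out growth percent per NCI-60 standard method.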

MALME-3M = assay: NCI one-dose screen; type: cell-based; conditions: Homo sapiens, read-out: Growth Percent
Summary of the method: as §1

CCRF-CEM = assay: NCI one-dose screen; type: cell-based; conditions: Homo sapiens, read-out: Growth Percent
Summary of the method: as §1

MDA-MB-435 = assay: NCI one-dose screen; type: cell-based; conditions: Homo sapiens; MDA-MB-435, 10 µM; read-out: Growth Percent
Summary of the method: as §1

MDA-MB-468 = assay: NCI one-dose screen; type: cell-based; conditions: Homo sapiens; MDA-MB-468, 10 µM; read-out: Growth Percent
Summary of the method: as §1

HCT-15 = assay: NCI one-dose screen; type: cell-based; conditions: Homo sapiens; HCT-15, 10 µM; read-out: Growth Percent
Summary of the method: as §1

HCC-2998 = assay: NCI one-dose screen; type: cell-based; conditions: Homo sapiens; HCC-2998, 10 µM; read-out: Growth Percent
Summary of the method: as §1

786-0 = assay: NCI one-dose screen; type: cell-based; conditions: Homo sapiens; 786-0, 10 µM; read-out: Growth Percent
Summary of the method: as §1

PC-3 = assay: NCI one-dose screen; type: cell-based; conditions: Homo sapiens; PC-3, 10 µM; read-out: Growth Percent
Summary of the method: as §1

NCI-H522 = assay: NCI one-dose screen; type: cell-based; conditions: Homo sapiens; NCI-H522, 10 µM; read-out: Growth Percent
Summary of the method: as §1

NCI-H460 = assay: NCI one-dose screen; type: cell-based; conditions: Homo sapiens; NCI-H460, 10 µM; read-out: Growth Percent
Summary of the method: as §1

IGROV1 = assay: NCI one-dose screen; type: cell-based; conditions: Homo sapiens, IGROV-1; IGROV1, 10 µM; read-out: Growth Percent
Summary of the method: as §1

T-47D = assay: NCI one-dose screen; type: cell-based; conditions: Homo sapiens, T47D, read-out: Growth Percent
Summary of the method: as §1

NCI-H23 = assay: NCI one-dose screen; type: cell-based; conditions: Homo sapiens; NCI-H23, 10 µM; read-out: Growth Percent
Summary of the method: as §1

K-562 = assay: NCI one-dose screen; type: cell-based; conditions: Homo sapiens, K562; K-562, 10 µM; read-out: Growth Percent
Summary of the method: as §1

HS 578T = assay: NCI one-dose screen; type: cell-based; conditions: Homo sapiens, read-out: Growth Percent
Summary of the method: as §1

SF-268 = assay: NCI one-dose screen; type: cell-based; conditions: Homo sapiens; SF-268, 10 µM; read-out: Growth Percent
Summary of the method: as §1

U251 = assay: NCI one-dose screen; type: cell-based; conditions: Homo sapiens, U-251; U251, 10 µM; read-out: Growth Percent
Summary of the method: as §1

MDA-MB-231/ATCC = assay: NCI one-dose screen; type: cell-based; conditions: Homo sapiens, read-out: Growth Percent
Summary of the method: as §1

COLO 205 = assay: NCI one-dose screen; type: cell-based; conditions: Homo sapiens; COLO 205, 10 µM; read-out: Growth Percent
Summary of the method: as §1

M14 = assay: NCI one-dose screen; type: cell-based; conditions: Homo sapiens; M14, 10 µM; read-out: Growth Percent
Summary of the method: as §1

SK-MEL-28 = assay: NCI one-dose screen; type: cell-based; conditions: Homo sapiens; SK-MEL-28, 10 µM; read-out: Growth Percent
Summary of the method: as §1

UO-31 = assay: NCI one-dose screen; type: cell-based; conditions: Homo sapiens; UO-31, 10 µM; read-out: Growth Percent
Summary of the method: as §1

NCI-H226 = assay: NCI one-dose screen; type: cell-based; conditions: Homo sapiens; NCI-H226, 10 µM; read-out: Growth Percent
Summary of the method: as §1

BT-549 = assay: NCI one-dose screen; type: cell-based; conditions: Homo sapiens; BT-549, 10 µM; read-out: Growth Percent
Summary of the method: as §1

A549/ATCC = assay: NCI one-dose screen; type: cell-based; conditions: Homo sapiens, read-out: Growth Percent
Summary of the method: as §1

Row | SMILES | activity at 10 µM [1] [%] | γH2AX foci formation (γH2AX) | activity at 10 µM (UACC-62) [%] | activity at 10 µM (MALME-3M) [%] | activity at 10 µM (CCRF-CEM) [%] | activity at 10 µM (MDA-MB-435) [%] | activity at 10 µM (MDA-MB-468) [%] | activity at 10 µM (HCT-15) [%] | activity at 10 µM (HCC-2998) [%] | activity at 10 µM (786-0) [%] | activity at 10 µM (PC-3) [%] | activity at 10 µM (NCI-H522) [%] | activity at 10 µM (NCI-H460) [%] | activity at 10 µM (IGROV1) [%] | activity at 10 µM (T-47D) [%] | activity at 10 µM (NCI-H23) [%] | activity at 10 µM (K-562) [%] | activity at 10 µM (HS 578T) [%] | activity at 10 µM (SF-268) [%] | activity at 10 µM (U251) [%] | other results
1 | O=C(/C=C/c1ccccc1)c1ccc(-n2cc(CN3CCN(c4cc5c(cc4F)c(=O)c(C(=O)O)cn5C4CC4)CC3)nn2)cc1 [Compound 4a, (E) 7-(4-((1–(4-Cinnamoylphenyl)-1H-1,2,3-triazol-4-yl)methyl)piperazin-1-yl)-1-cyclopropyl-6-fluoro-4-oxo-1,4-dihydroquinoline-3-carboxylic acid] | 87.8 | induced γH2AX foci formation | 90.5 | 94.9 | 111 | 96.3 | 72.5 | 93.8 | 86 | 87.9 | 83.9 | 89.2 | 91.2 | 75.3 | 96.4 | 83.5 | 101 | 80.6 | 85.3 | 98.4 | activity at 10 µM (MDA-MB-231/ATCC): 97.1%; activity at 10 µM (COLO 205): 110%; activity at 10 µM (M14): 90.1%; activity at 10 µM (SK-MEL-28): 99.3%; activity at 10 µM (UO-31): 63.1%; activity at 10 µM (NCI-H226): 69.6%; activity at 10 µM (BT-549): 102%; activity at 10 µM (A549/ATCC): 89.8%
2 | O=C(/C=C/c1ccc(F)cc1)c1ccc(-n2cc(CN3CCN(c4cc5c(cc4F)c(=O)c(C(=O)O)cn5C4CC4)CC3)nn2)cc1 [Compound 4e, (E)-1-cyclopropyl-6-fluoro-7–(4-((1–(4-(3-(4-fluorophenyl)acryloyl)phenyl)-1H-1,2,3-triazol-4-yl)methyl)piperazin-1-yl)-4-oxo-1,4-dihydroquinoline-3-carboxylic acid] | 53.9 | induced γH2AX foci formation | 55.8 | 89.2 | 20 | 64.7 | 32.9 | 63.4 | 79.3 | 33.2 | 57.4 | 48.5 | 32.5 | 39.6 | 76.8 | 80.3 | 21.9 | 57.5 | 35.7 | 16.6 | activity at 10 µM (MDA-MB-231/ATCC): 65.3%; activity at 10 µM (COLO 205): 105%; activity at 10 µM (M14): 60.9%; activity at 10 µM (SK-MEL-28): 68%; activity at 10 µM (UO-31): 62.8%; activity at 10 µM (NCI-H226): 81.7%; activity at 10 µM (BT-549): 32%; activity at 10 µM (A549/ATCC): 82.2%
3 | COc1ccc(/C=C/C(=O)c2ccc(-n3cc(CN4CCN(c5cc6c(cc5F)c(=O)c(C(=O)O)cn6C5CC5)CC4)nn3)cc2)cc1OC [Compound 4i, (E)-1-cyclopropyl-7-(4-((1-(4-(3–(3,4-dimethoxyphenyl)acryloyl)phenyl)-1H-1,2,3-triazol-4-yl)methyl)piperazin-1-yl)-6-fluoro-4-oxo-1,4-dihydroquinoline-3-carboxylic acid] | 59.5 | induced γH2AX foci formation | 53.9 | 66.2 | 44 | 22.2 | 26.3 | 80.6 | 44 | 71.9 | 56.3 | 67.6 | 77.9 | 26.6 | 78.6 | 78.7 | 42.5 | 52.8 | 56 | 41.4 | activity at 10 µM (MDA-MB-231/ATCC): 67.2%; activity at 10 µM (COLO 205): 98.2%; activity at 10 µM (M14): 59%; activity at 10 µM (SK-MEL-28): 79.8%; activity at 10 µM (UO-31): 54.9%; activity at 10 µM (NCI-H226): 67.3%; activity at 10 µM (BT-549): 65.8%; activity at 10 µM (A549/ATCC): 66.1%
